This assay addresses T1, STM1221 (Salmonella enterica, UniProt P0A2F2).
T1 construct: gene cobB; expressed from pET28b in E. coli BL21, nickel-purified
T1 sequence (P0A2F2 1-273): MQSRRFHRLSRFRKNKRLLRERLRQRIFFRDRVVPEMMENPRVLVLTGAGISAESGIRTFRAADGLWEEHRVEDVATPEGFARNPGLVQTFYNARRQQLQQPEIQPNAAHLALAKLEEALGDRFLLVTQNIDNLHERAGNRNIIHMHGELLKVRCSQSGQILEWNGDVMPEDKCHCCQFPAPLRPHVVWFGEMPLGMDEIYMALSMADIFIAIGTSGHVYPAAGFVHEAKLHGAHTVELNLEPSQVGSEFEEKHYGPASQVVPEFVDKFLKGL
Briefly: HPLC deacylation assay. It is filed as biochemical. The settings on record: 1 mM NAD+, 1 mM acylated H3K27 13-mer peptide as co-substrate, 5 uM enzyme, 6 mM MgCl2, pH 8.0, 37 °C.

The structures appear in SMILES notation.

Take `NC(=O)c1ccc[n+]([C@@H]2O[C@H](COP(=O)(O)OP(=O)(O)OC[C@H]3O[C@@H](n4cnc5c(N)ncnc54)[C@H](O)[C@@H]3O)[C@@H](O)[C@H]2O)c1` [NAD^+]: the HPLC deacylation assay entry is “The reactions without NAD^+ were used as the negative controls”.
